Test results as given in ChEMBL document CHEMBL3745710, “Synthesis, antibacterial and anti-MRSA activity, in vivo toxicity and a structure-activity relationship study of a quinoline thiourea” (Bioorg Med Chem Lett, 2016).
Values after ≈ are worked out from the molar mass of the structure shown. Active and inactive are the calls of the source. No cut-off for these calls is given here.

Columns and labels:
Staphylococcus aureus [1] = experiment: Antibacterial activity against Staphylococcus aureus NCIMB 12702 after 24 hrs by serial dilution method; format: functional; conditions: for MIC50 / MIC90 / MIC80: Staphylococcus aureus, NCIMB 12702, 24 h
Escherichia coli = experiment: Antibacterial activity against Escherichia coli NCIMB 9485 after 24 hrs by serial dilution method; format: functional; conditions: for MIC50 / MIC90 / MIC80: NCIMB 9485, 24 h
Pseudomonas aeruginosa = experiment: Antibacterial activity against Pseudomonas aeruginosa ATCC 10145 after 24 hrs by serial dilution method; format: functional, organism-based
[2] = Toxicity in sixth development stage of Galleria mellonella larvae assessed as survival rate at 1000 ug/ml after 24 hrs; format: organism-based; conditions: in vivo
[3] = Toxicity in sixth development stage of Galleria mellonella larvae assessed as survival rate at 100 ug/ml after 24 hrs; format: organism-based; conditions: in vivo
[4] = Toxicity in sixth development stage of Galleria mellonella larvae assessed as survival rate at 50 ug/ml after 24 hrs; format: organism-based; conditions: in vivo
[5] = Toxicity in sixth development stage of Galleria mellonella larvae assessed as survival rate at 10 ug/ml after 24 hrs; format: organism-based; conditions: in vivo
[6] = Toxicity in sixth development stage of Galleria mellonella larvae assessed as survival rate at 1 ug/ml after 24 hrs; format: organism-based; conditions: in vivo
[7] = Toxicity in sixth development stage of Galleria mellonella larvae assessed as survival rate at 1000 ug/ml after 48 hrs; format: organism-based; conditions: in vivo
[8] = Toxicity in sixth development stage of Galleria mellonella larvae assessed as survival rate at 100 ug/ml after 48 hrs; format: organism-based; conditions: in vivo
[9] = Toxicity in sixth development stage of Galleria mellonella larvae assessed as survival rate at 50 ug/ml after 48 hrs; format: organism-based; conditions: in vivo
[10] = Toxicity in sixth development stage of Galleria mellonella larvae assessed as survival rate at 10 ug/ml after 48 hrs; format: organism-based; conditions: in vivo
[11] = Toxicity in sixth development stage of Galleria mellonella larvae assessed as survival rate at 1 ug/ml after 48 hrs; format: organism-based; conditions: in vivo
[12] = Toxicity in sixth development stage of Galleria mellonella larvae assessed as survival rate at 1000 ug/ml after 72 hrs; format: organism-based; conditions: in vivo
[13] = Toxicity in sixth development stage of Galleria mellonella larvae assessed as survival rate at 100 ug/ml after 72 hrs; format: organism-based; conditions: in vivo
[14] = Toxicity in sixth development stage of Galleria mellonella larvae assessed as survival rate at 50 ug/ml after 72 hrs; format: organism-based; conditions: in vivo
[15] = Toxicity in sixth development stage of Galleria mellonella larvae assessed as survival rate at 10 ug/ml after 72 hrs; format: organism-based; conditions: in vivo
[16] = Toxicity in sixth development stage of Galleria mellonella larvae assessed as survival rate at 1 ug/ml after 72 hrs; format: organism-based; conditions: in vivo
Galleria mellonella = experiment: Toxicity in sixth development stage of Galleria mellonella larvae assessed as larvae pupation at 1 to 1000 ug/ml after 7 days relative to control; format: organism-based; conditions: in vivo, 168 h
Staphylococcus aureus [17] = experiment: Antibacterial activity against methicillin-resistant Staphylococcus aureus after 24 hrs by serial dilution method; format: functional

SMILES	MIC50 (Staphylococcus aureus [1]) [µM]	MIC90 (Staphylococcus aureus [1]) [µM]	MIC50 (Escherichia coli) [µM]	MIC90 (Escherichia coli) [µM]	MIC (Pseudomonas aeruginosa)	survival at 24 h [2] [%]	survival at 24 h [3] [%]	survival at 24 h [4] [%]	survival at 24 h [5] [%]	survival at 24 h [6] [%]	survival at 48 h [7] [%]	survival at 48 h [8] [%]	survival at 48 h [9] [%]	survival at 48 h [10] [%]	survival at 48 h [11] [%]	survival at 72 h [12] [%]	survival at 72 h [13] [%]	survival at 72 h [14] [%]	survival at 72 h [15] [%]	survival at 72 h [16] [%]	further results
C=C[C@H]1CN2CC[C@H]1C[C@H]2[C@@H](NC(=S)Nc1ccccc1)c1ccnc2ccc(OC)cc12	54.6 (≈ 25 µg/mL)	164 (≈ 75.1 µg/mL)	40.9 (≈ 18.8 µg/mL)	81.8 (≈ 37.5 µg/mL)	inactive	100	100	100	100	100	100	100	100	100	100	100	100	100	100	100	Activity (Galleria mellonella): Non-toxic
C=C[C@H]1CN2CC[C@H]1C[C@H]2CNC(=S)Nc1cc(C(F)(F)F)cc(C(F)(F)F)c1	42.9 (≈ 18.8 µg/mL)	85.8 (≈ 37.5 µg/mL)	42.9 (≈ 18.8 µg/mL)	85.8 (≈ 37.5 µg/mL)	inactive	100	100	100	100	100	100	100	100	100	100	100	100	100	100	100	MIC80 (Staphylococcus aureus [1]): 85.8 µM (≈ 37.5 µg/mL); MIC80 (Escherichia coli): 85.8 µM (≈ 37.5 µg/mL); MIC50 (Staphylococcus aureus [17]): 20.7 µM (≈ 9.07 µg/mL); MIC90 (Staphylococcus aureus [17]): 31.4 µM (≈ 13.8 µg/mL); Activity (Galleria mellonella): Non-toxic
CCC1CN2CCC1CC2[C@@H](OC(=O)c1ccc(Cl)cc1)c1ccnc2ccc(OC)cc12 (stereo partly drawn)		79.4 (≈ 36.9 µg/mL)		> 200	inactive																
CCNC(=S)Nc1cc(C(F)(F)F)cc(C(F)(F)F)c1	> 316	> 316	158 (≈ 50 µg/mL)	> 316	inactive																
CN[C@@H](CC(C)C)C(=O)N[C@H]1C(=O)N[C@@H](CC(N)=O)C(=O)N[C@H]2C(=O)N[C@H]3C(=O)N[C@H](C(=O)N[C@@H](C(=O)O)c4cc(O)cc(O)c4-c4cc3ccc4O)[C@H](O)c3ccc(c(Cl)c3)Oc3cc2cc(c3O[C@H]2O[C@@H](CO)[C@H](O)[C@@H](O)[C@@H]2O[C@@H]2C[C@@](C)(N)[C@@H](O)[C@@H](C)O2)Oc2ccc(cc2Cl)[C@H]1O [listing 1 of 2 here]																					MIC90 (Staphylococcus aureus [17]): 1.35 µM (≈ 1.96 µg/mL)
C=CC1CN2CCC1CC2[C@@H](Oc1cc(C)c2ccccc2n1)c1ccnc2ccc(OC)cc12 (stereo partly drawn)		115 (≈ 53.5 µg/mL)		> 200	inactive																
FC(F)(F)c1cc(NC(=S)Nc2ccccc2)cc(C(F)(F)F)c1	> 275	> 275	51.5 (≈ 18.8 µg/mL)	206 (≈ 75.1 µg/mL)	inactive	100	100	100	100	100	100	100	100	100	100	100	100	100	100	100	MIC80 (Staphylococcus aureus [1]): > 275 µM; MIC80 (Escherichia coli): 103 µM (≈ 37.5 µg/mL); Activity (Galleria mellonella): Non-toxic
CN(C)CCNC(=S)Nc1cc(C(F)(F)F)cc(C(F)(F)F)c1					inactive																MIC (Staphylococcus aureus [1]): inactive; MIC (Escherichia coli): inactive
CN[C@@H](CC(C)C)C(=O)N[C@H]1C(=O)N[C@@H](CC(N)=O)C(=O)N[C@H]2C(=O)N[C@H]3C(=O)N[C@H](C(=O)N[C@@H](C(=O)O)c4cc(O)cc(O)c4-c4cc3ccc4O)[C@H](O)c3ccc(c(Cl)c3)Oc3cc2cc(c3O[C@H]2O[C@@H](CO)[C@H](O)[C@@H](O)[C@@H]2O[C@@H]2C[C@@](C)(N)[C@@H](O)[C@@H](C)O2)Oc2ccc(cc2Cl)[C@H]1O [listing 2 of 2 here]	1.58 (≈ 2.29 µg/mL)	4.21 (≈ 6.1 µg/mL)	1.58 (≈ 2.29 µg/mL)	4.21 (≈ 6.1 µg/mL)																	MIC80 (Staphylococcus aureus [1]): 3.16 µM (≈ 4.58 µg/mL); MIC80 (Escherichia coli): 2.1 µM (≈ 3.04 µg/mL)
CCN(CC)CCNC(=S)Nc1cc(C(F)(F)F)cc(C(F)(F)F)c1	96.9 (≈ 37.5 µg/mL)	194 (≈ 75.1 µg/mL)	96.9 (≈ 37.5 µg/mL)	194 (≈ 75.1 µg/mL)	inactive	100	100	100	100	100	100	100	100	100	100	100	100	100	100	100	MIC80 (Staphylococcus aureus [1]): 129 µM (≈ 50 µg/mL); MIC80 (Escherichia coli): 129 µM (≈ 50 µg/mL); MIC50 (Staphylococcus aureus [17]): 13.5 µM (≈ 5.22 µg/mL); MIC90 (Staphylococcus aureus [17]): 23.5 µM (≈ 9.11 µg/mL); Activity (Galleria mellonella): Non-toxic
C=C[C@H]1CN2CC[C@H]1C[C@H]2[C@@H](NC(=S)Nc1cc(C(F)(F)F)cc(C(F)(F)F)c1)c1ccnc2ccccc12	8.32 (≈ 4.7 µg/mL)	16.6 (≈ 9.38 µg/mL)	5.54 (≈ 3.13 µg/mL)	8.32 (≈ 4.7 µg/mL)	inactive	100	100	100	100	100	100	100	100	100	100	100	100	100	100	100	MIC50 (Staphylococcus aureus [17]): 10.8 µM (≈ 6.1 µg/mL); MIC90 (Staphylococcus aureus [17]): 18.1 µM (≈ 10.2 µg/mL); Activity (Galleria mellonella): Non-toxic
